Read-outs that look alike come from different tables or passages of the source.
Key:
[1] = system: Daudi cell line (AID positive); assay: Primary screening cell killing assay (Cell-Titer Glo, Day 7); assay type: cell-based; details: Homo sapiens
Procedure: (§1) Primary screening was a phenotypic screen that utilized the synthetic lethal interaction between AID and RAD51 to identify compounds that were both potent and on target. AID expressing cells are dependent upon RAD51 for survival; inhibiting RAD51 in AID positive cells results in a cytotoxic effect.
(§2) The first step was to set up a cell killing assay in the Daudi cell line (AID positive). A 96 well u-bottom plate was prepared by writing the experiment number, plate number, date and initials in the top right corner of the plate lid. With a sterile 300 ml reservoir, and 25 ml serological pipette, evaporation buffer media was pipetted into reservoir in 25 ml increments. Using the liquid handler, 150 ul of evaporation buffer media was pipetted from reservoir into rows A and H, and Columns 1 and 12 of the 96 well u-bottom plate. Cell cultures were counted to obtain the density of cells per ml, and the culture viability. The cell density information was used to obtain 1,000,000 cells from culture using a 5 mL serological pipette into an epi tube. The cell density information from the culture was used to calculate the number of cells and volume of media needed for the assay to seed 1250 cells in 130 ul of media per available culture well in the 96 well u-bottom plate. Rows B through F were used for cells (50 wells in total), with row G left for an empty media control. The calculation was overestimated by 10 mL to account for the dead volume in the 300 ml reservoir. Once the media volume was calculated, the appropriate volume of media was pipetted in 25 mL increments into the 250 mL bottle using a 25 mL serological pipette. The 250 ml bottle was capped tightly, and placed into a 37° C. water bath for 2 minutes. While the culture media was warming, 10 mL of fresh media was pipetted from the 500 mL culture media bottle into a sterile 25 mL reservoir. Using the Eppendorf multichannel pipette, 130 ul of media was piptted from the 25 mL reservoir into row G of the 96 well u-bottom plate. Once the 250 mL bottle of media was warmed, the volume of culture needed was pipetted into the bottle, and mixed gently with a 25 mL serological pipette as to not create bubbles, and then the contents of the bottle were pipetted into a new 300 mL reservoir. Using the liquid handler, 130 ul of culture was pipetted from the 300 mL reservoir into rows B through F of the 96 well u-bottom plate. Once the culture was added, the plate was placed into a 37° C. incubator until the compound master plate was prepared for use.
(§3) Two 96 well u-bottom plates were prepared by writing the master plate name in the upper right corner of the plate lid. Labeling one DMSO master and the other Media Master. The compounds of interest were obtained from the laboratory freezer, and placed into a 25 well storage box with a lid, and set the box aside. The compounds were vortexed after thawing but before use. Using an automatic multichannel pipette, 20 ul of 100% DMSO was pipetted into wells B3-B11 through G3-G11 of the DMSO master plate. For each compound on the master plate, 50 ul of the compound were pipetted in the appropriate well of row 2 (reference plate map to determine appropriate well). A serial dilution was prepared beginning by aspirating 20 ul from row 2 and mixing with row 3, repeating until row 11 was reached. Using the liquid handler, 194 ul of Daudi media was dispensed into wells B2-B11 through G2-G11 of the Media master plate. Using the liquid handler, 6 ul from the DMSO master plate was aspirated and dispensed into the media master plate, mixing 100 ul twice.
Compounds from master plate were then added to the culture plate. The culture plates were removed from the incubator, and set inside the biosafety cabinet. Using a liquid handler, 20 ul from wells B2 to B11 through G2 to G11 of master plate were aspirated, and dispensed into wells B2 to B11 through G2 to G11 of culture plate. This set was continued with each culture plate. […]

[2] = Bi-directional Caco-2 permeability; assay type: in vitro ADME; details: human; for Papp A→B / Papp B→A: Caco-2, 37 C, up to 90 minutes; for Papp A→B: apical to basolateral, read-out: AB Papp (cm/sec × 10^6); for Papp B→A: basolateral to apical, read-out: BA Papp (cm/sec × 10^6); for efflux ratio: Caco-2 efflux ratio, read-out: BA/AB Ratio
Procedure: Bi-directional Caco-2 permeability was assayed. Caco-2 cells were seeded onto permeable polycarbonate supports and allowed to differentiate for about 3 weeks prior to being used in the assays. The cells were then exposed to the compounds from either the apical or basolateral sides and incubated at 37 C for up to 90 minutes under light agitation. Compound transport was then measured using LC/MS/MS analysis at 30, 60, and 90 minutes.

[3] = system: WI-38 cells (AID negative); assay: Primary screening cell killing assay repeated in AID negative cells; assay type: cell-based, Human
Procedure: as §1
Percent cell death and EC50 values were calculated by comparing the cell viability of the compound treated wells to the non-treated wells. Normalized RLU values were obtained by subtracting the media well values from each of the wells in the same column, and then dividing that value by the DMSO treated cells values. The percent kill was then calculated by subtracting the normalized RLU value from 1 and multiplying by 100. The average normalized percent kill value and standard error of the mean was then calculated. The kill values were then inputted into Prism with the corresponding standard errors. In Prism a non-linear regression line was plotted with the data points using a semi-log scale, and the EC50 value was calculated.
The activity of the claimed compounds was measured in a variety of cell lines with different expression levels of activation induced cytidine deaminase (AICDA). The potency assay was repeated in all of the listed cell lines and the EC50 values recorded.

U-698-M (Lymphoma) = assay: Cell line screen (potency assay); assay type: cell-based; details: AICDA expression High
Procedure: as §2, §3
(§4) Compounds from master plate were then added to the culture plate. The culture plates were removed from the incubator, and set inside the biosafety cabinet. Using a liquid handler, 20 ul from wells B2 to B11 through G2 to G11 of master plate were aspirated, and dispensed into wells B2 to B11 through G2 to G11 of culture plate. This set was continued with each culture plate. Once the culture plates acquired their 20 ul of compound dilutions, they were placed back into the incubator, until their reads on Day 7 of experiment. Cell death was measured on Day 7 of the experiment using Cell-Titer Glo and a Promega Plate reader. […]

KG-1 (Leukemia) = assay: Cell line screen (potency assay); assay type: cell-based; details: AICDA expression Negative
Procedure: as §2, §3, §4

KYSE-510 (Head and Neck) = assay: Cell line screen (potency assay); assay type: cell-based; details: Homo sapiens, AICDA expression Negative
Procedure: as §2, §3, §4

WSU-FSCCL (Lymphoma) = assay: Cell line screen (potency assay); assay type: cell-based; details: AICDA expression Negative
Procedure: as §2, §3, §4

[4] = system: ARPE19/HPV16 (HPV Immortalized RPE); assay: Cell line screen (potency assay); assay type: cell-based; details: ARPE-19, AICDA expression Negative
Procedure: as §2, §3, §4

KYSE-70 (Head and Neck) = assay: Cell line screen (potency assay); assay type: cell-based; details: Homo sapiens, AICDA expression Low
Procedure: as §2, §3, §4

CCRF-SB (Leukemia) = assay: Cell line screen (potency assay); assay type: cell-based; details: Homo sapiens, AICDA expression High
Procedure: as §2, §3, §4

[5] = Pharmacokinetic (PK) study; assay type: in vivo, Rat; details: po @ 80 mg/kg (30% PEG400, 10% Vitamin E TPGS in water)
Procedure: PK studies in mice were used to determine the fate of the compounds in a whole organism. Rats were treated with the compounds either orally of via IV at the indicated doses and followed for up to 24 hours. Plasma samples were taken at different time points and analyzed by LC-MS.

[6] = Human liver microsome stability; assay type: in vitro ADME; details: for Human Liver Microsome Stability % QH: percentage of hepatic blood flow
Procedure: The stability of the claimed compounds was determined in the presences of human liver microsomes. The compounds were incubated with the microsomes at 37° C. for 45 minutes. Samples were analyzed using LC-MS/MS. Data analysis included half-life, clearance rate, and the percentage of hepatic blood flow (% QH) for each of the compounds in the different species.

[7] = 168 h, Daudi cells (AID positive), cell death on Day 7, read-out: AID+ EC50
[8] = Caco-2, apical to basolateral, read-out: AB Recovery %
[9] = Caco-2, basolateral to apical, read-out: BA Recovery %
[10] = Homo sapiens, WI-38 cells (AID negative), read-out: AID− EC50

Structure (SMILES) | EC50 [1, 7] | recovery at 90 min [2, 8] | recovery at 90 min [2, 9] | Papp A→B [2] | Papp B→A [2] | efflux ratio [2] | EC50 [3, 10] | EC50 [4] | F (%) @ 5 mg/kg ([5]; Rat Female) | F (%) @ 5 mg/kg ([5]; Rat Male) | Human Liver Microsome Stability % QH [6] | other results
CC(C)OC(=O)NC1CCC(c2nc(F)c(-c3ccc(NC(=O)NCc4ccccc4)cc3S(=O)(=O)NC(C)(C)C)s2)CC1 (stereo not shown) [Compound 57] | ≤ 100 nM | 61.9% | 86.8% | 1.3 ×10⁻⁶ cm/s | 3.5 ×10⁻⁶ cm/s | 2.7 | > 1000 nM | – | – | – | – | –
CC(C)OC(=O)N[C@H]1CC[C@H](c2ncc(-c3ccc(NC(=O)NCc4ncccc4F)cc3S(=O)(=O)NC(C)(C)C)s2)CC1 [Compound 31] | ≤ 100 nM | 70.5% | 92.3% | – | – | – | > 1000 nM | > 10000 nM | 2.77% | 1.49% | 77.3% | EC50 (U-698-M (Lymphoma)): 31 nM; EC50 (KG-1 (Leukemia)): 8780 nM; EC50 (KYSE-510 (Head and Neck)): > 10000 nM; EC50 (WSU-FSCCL (Lymphoma)): < 40 nM; EC50 (KYSE-70 (Head and Neck)): 4700 nM; EC50 (CCRF-SB (Leukemia)): 2160 nM; T1/2 ([5]; Rat Female): 4.75 h; T1/2 ([5]; Rat Male): 3.79 h; EC50 ([1]; Daudi (Lymphoma), AICDA expression High, read-out: EC50): 20 nM; EC50 ([3]; WI-38 (Normal Human Lung Fibroblast), AICDA expression Negative, read-out: EC50): > 10000 nM; Human Liver Microsome Stability Half Life ([6]; 37° C., 45 minutes incubation): 0.373 h
CC(C)(C)NS(=O)(=O)c1cc(NC(=O)NCc2ccccc2)ccc1-c1cnc(C2CCC(NC(=O)OC(C)(C)C)CC2)s1 (stereo not shown) [Compound 10] | ≤ 100 nM | 59.9% | 87.2% | 1.2 ×10⁻⁶ cm/s | 1.5 ×10⁻⁶ cm/s | 1.3 | > 1000 nM | – | – | – | – | –
CC(C)OC(=O)N[C@H]1CC[C@H](c2ncc(-c3ccc(NC(=O)NCc4ccccc4)cc3S(=O)(=O)NC(C)(C)C)s2)CC1 [Compound 66A] | – | – | – | – | – | – | – | > 10000 nM | 3.31% | 2.55% | 49.6% | –
CC(C)OC(=O)NC1CCC(c2ncc(-c3ccc(NC(=O)NCc4cccc(F)c4)cc3S(=O)(=O)NC(C)(C)C)s2)CC1 (stereo not shown) [Compound 27] | ≤ 100 nM | 92% | 107% | – | – | – | > 1000 nM | – | – | – | – | –
CC(C)OC(=O)NC1CCC(c2ncc(-c3ccc(NC(=O)NCc4ccccc4)cc3S(=O)(=O)NC(C)(C)CO)s2)CC1 (stereo not shown) [Compound 74] | ≤ 100 nM | – | – | – | – | – | > 1000 nM | – | – | – | – | –

Source: patent US11607404B2, “Combinations of RAD51 and PARP inhibitors” (Cyteir Therapeutics, Inc., priority 2019, dated 2023)
